The source of these data is ChEMBL document CHEMBL4613212, “Insights of synthetic analogues of anti-leprosy agents” (Bioorg Med Chem, 2019).

Series [1] concerns Mycolicibacterium smegmatis. Briefly: Antimycobacterial activity against DDS resistant Mycobacterium smegmatis ATCC 607 […]. The class given is functional.
Series [2] deals with Mycobacterium leprae. Briefly: Anti-leprotic activity against Mycobacterium leprae infected in BALB/c mouse assessed as time delay in bacterial multiplication in footpad at 0.01 g/100g of diet administered via feed starting 60 or 75 day post infection up to 90 days by Shepard's kinetic method. The class given is functional.
The test system of series [3] is Mycolicibacterium smegmatis. Briefly: Antimycobacterial activity against DDS sensitive Mycobacterium smegmatis ATCC 607 […]. The class given is functional.
For series [4], the system named is Mycobacterium leprae. Briefly: Inhibition of PGL1 synthesis in Mycobacterium leprae infected Swiss Webster mouse macrophages assessed as decrease in [U-14C]PA incorporation at 0.2 uM preincubated for 4 days post infection followed by [U-14C]PA addition and measured after 7 days by liquid scintillation counter analysis relative to control. The class given is functional.

Series [5] concerns Mycobacterium leprae. The series can be described thus: Inhibition of PGL1 synthesis in Mycobacterium leprae infected Swiss Webster mouse macrophages assessed as decrease in [U-14C]PA incorporation at 2 uM preincubated for 4 days post infection followed by [U-14C]PA addition and measured after 7 days by liquid scintillation counter analysis relative to control. It is filed as functional.

Another series concerns Mycolicibacterium aurum. Briefly: Antimicrobial activity against Mycobacterium aurum incubated for 24 hrs by broth microdilution assay. It is filed as functional. A general note: Dilution methods test growth across graded concentrations, often in twofold steps.
In series [6] the test system is Mycolicibacterium smegmatis. Briefly: Antimicrobial activity against Mycobacterium smegmatis incubated for 24 hrs by broth microdilution assay. It is filed as functional.
The subject of series [7] is Mycobacterium leprae. Briefly: Anti-leprotic activity against Mycobacterium leprae infected in 538 CBA mouse assessed as number of Mycobacterium leprae in paw pads at 6 mg/kg administrated via gastric tube 5 times a week and measured 7 months post infection. It is filed as functional.
Series [8] relates to Mycobacterium leprae. Briefly: Anti-leprotic activity against Mycobacterium leprae infected in 538 CBA mouse assessed as number of Mycobacterium leprae in paw pads at 2 mg/kg administrated via gastric tube 5 times a week and measured 7 months post infection. The class given is functional.
A further series deals with Mycolicibacterium vaccae. The series can be described thus: Antimicrobial activity against Mycobacterium vaccae incubated for 24 hrs by broth microdilution assay. The class given is functional.
The test system of series [9] is Mycolicibacterium fortuitum. The series can be described thus: Antimicrobial activity against Mycobacterium fortuitum incubated for 24 hrs by broth microdilution assay. It is filed as functional.
In series [10] the test system is Mycobacterium leprae. The series can be described thus: Inhibition of PGL1 synthesis in Mycobacterium leprae infected Swiss Webster mouse macrophages assessed as decrease in [U-14C]PA incorporation at 20 uM preincubated for 4 days post infection followed by [U-14C]PA addition and measured after 7 days by liquid scintillation counter analysis relative to control. It is filed as functional.

For series [11], the system named is Mycobacterium tuberculosis. The series can be described thus: Antimycobacterial activity against Mycobacterium tuberculosis H37Rv by BACTEC radiometric growth assay. It is filed as functional.
For series [12], the system named is Mycolicibacterium smegmatis. Briefly: Antimicrobial activity against Mycobacterium smegmatis incubated for 30 to 32 hrs under shaking condition relative to control. It is filed as functional.
Series [13] has as its system Mycolicibacterium smegmatis. Briefly: Antimicrobial activity against Mycobacterium smegmatis incubated for 30 to 32 hrs under shaking condition. The class given is functional.
The subject of series [14] is Mycobacterium leprae. The series can be described thus: Anti-leprotic activity against Mycobacterium leprae infected in CBA mouse assessed as number of Mycobacterium leprae in paw pads at 10 mg/kg administrated 5 times a week and measured 7.5 months post infection (reference value: 3.91 +/- 0.33 10^5). It is filed as functional.
Series [15] relates to Mycobacterium leprae. The series can be described thus: Anti-leprotic activity against Mycobacterium leprae infected in CBA mouse assessed as number of Mycobacterium leprae in paw pads at 30 mg/kg administrated 5 times a week and measured 7.5 months post infection (reference value: 3.91 +/- 0.33 10^5). It is filed as functional.
The test system of series [16] is Monocyte. Briefly: Antiinflammatory activity in human monocytes assessed as inhibition of LPS-induced TNFaplha production at 25 uM preincubated for 15 mins followed by LPS addition and measured after 4 hrs by ELISA relative to control. The class given is functional.
For series [17], the system named is Monocyte. The series can be described thus: Antiinflammatory activity in human monocytes assessed as inhibition of LPS-induced TNFaplha production at 50 uM preincubated for 15 mins followed by LPS addition and measured after 4 hrs by ELISA relative to control. It is filed as functional. For orientation: An ELISA detects its analyte on a solid surface through an enzyme-linked reagent.

A short description of series [18]: Cytotoxicity against LPS-induced human monocytes assessed as cell viability at 50 uM by tryphan blue staining based assay relative to control. Details: species or system Monocyte. The conditions noted are these: read-out: Activity.
A further series has as its system Escherichia coli. Briefly: Antimicrobial activity against Escherichia coli assessed as zone of inhibition incubated for 20 hrs by agar well diffusion assay. The class given is functional. On the technique in general: A growth-free zone around the sample is the usual read-out of agar diffusion tests.
The next series relates to Staphylococcus aureus. Briefly: Antimicrobial activity against Staphylococcus aureus assessed as zone of inhibition incubated for 20 hrs by agar well diffusion assay. It is filed as functional.
Series [19] is described as follows: Selectivity index, ratio of IC50 for African green monkey Vero cells to MIC for antitubercular activity against Mycobacterium tuberculosis H37Rv. Conditions: Vero cells, read-out: Selectivity Index. The class given is toxicity.
The test system of series [20] is Mycobacterium tuberculosis. The series can be described thus: Antitubercular activity against Mycobacterium tuberculosis H37Rv ATCC 27294 assessed as growth inhibition at 6.25 ug/ml by microplate alamar blue assay relative to control. It is filed as functional.

Structures are written as SMILES. In brackets after ≈: the same amount, converted by molar mass.

`Nc1ccc(S(=O)(=O)c2ccc(O)cc2)cc1`: the MIC in series [1] is 2010 µg/mL (≈ 8050 µM); in series [3], 12 µg/mL (≈ 48.1 µM). Also, the Time in the series with Mycobacterium leprae [2] was less than 10 days.

In the case of `Clc1ccc(Nc2cc3nc4ccccc4n(-c4ccc(Cl)cc4)c-3c/c2=N/CCCN2CCCC2)cc1`, in the series on Mycobacterium leprae [4], the inhibition at 0.2 µM worked out at 26%. The inhibition at 2 µM in the series on Mycobacterium leprae [5] is 98%.

With `N#Cc1cc([N+](=O)[O-])cnc1SC(=S)N1CCCC1`, the MIC was found to be 1.56 µg/mL (≈ 5.3 µM) in the series on Mycolicibacterium aurum, 3.12 µg/mL (≈ 10.6 µM) in [6], 1.56 µg/mL (≈ 5.3 µM) with Mycolicibacterium vaccae and 1.56 µg/mL (≈ 5.3 µM) in [9]. Besides, the figures for the Activity in the series with Mycobacterium leprae [7] and in the series with Mycobacterium leprae [8] were 0.28 ×10⁷ No_unit and 0.56 ×10⁷ No_unit, respectively.

For `NNC(=O)c1ccncc1` [ISONIAZID], the inhibition at 20 µM in the series on Mycobacterium leprae [10] came out at 29%. This compound returned an MIC in series [11] of 0.1 to 0.4 µg/mL (≈ 0.729 to 2.92 µM).

As for `CN(C)c1ncnc(SC(=S)N2CCCC2)c1[N+](=O)[O-]`, the minimal inhibitory concentration (MIC) stood at 3.12 µg/mL (≈ 9.96 µM) in the series with Mycolicibacterium aurum, 3.12 µg/mL (≈ 9.96 µM) in [6], 1.56 µg/mL (≈ 4.98 µM) against Mycolicibacterium vaccae and 1.56 µg/mL (≈ 4.98 µM) in series [9]. Also, the results for the Activity with Mycobacterium leprae [7] and in the series on Mycobacterium leprae [8] were 2.14 ×10⁷ No_unit and 4.43 ×10⁷ No_unit, respectively.

Regarding `CC(C)/N=c1\cc2n(-c3ccc(Cl)cc3)c3ccccc3nc-2cc1Nc1ccc(Cl)cc1` [CLOFAZIMINE], in the series on Mycobacterium leprae [4], the inhibition at 0.2 µM amounted to 70%. In the series on Mycobacterium leprae [5], the inhibition at 2 µM came to 94%.

With `CCN(CC)CCC/N=c1/cc2n(-c3ccc(Cl)cc3)c3ccccc3nc-2cc1Nc1ccc(Cl)cc1`, the inhibition at 0.2 µM in the series with Mycobacterium leprae [4] came out at 22%. The inhibition at 2 µM in the series with Mycobacterium leprae [5] came to 90%.

As for `CCn1cc(C(=O)N/N=C\c2cc(OC)c(OC)c(OC)c2)c(=O)c2cc(F)c(N3CCN(C)CC3)cc21`, the Activity in series [12] is more than 30%. Also, the MIC in series [13] amounted to 81.2 µM (≈ 42.7 µg/mL).

On to `N#Cc1cc([N+](=O)[O-])cnc1SC(=S)N1CCCCCC1`, for which the MIC was found to be 1.56 µg/mL (≈ 4.84 µM) in the series on Mycolicibacterium aurum, 1.56 µg/mL (≈ 4.84 µM) in [6], 0.4 µg/mL (≈ 1.24 µM) with Mycolicibacterium vaccae and 0.8 µg/mL (≈ 2.48 µM) in series [9]. The Activity in the series on Mycobacterium leprae [7] came to 0.28 ×10⁷ No_unit; in the series on Mycobacterium leprae [8], 6.64 ×10⁷ No_unit.

On to `CN(C)C(=S)Sc1c(C#N)cc([N+](=O)[O-])cc1[N+](=O)[O-]`, for which the values for the Activity with Mycobacterium leprae [14] and in the series with Mycobacterium leprae [15] were 0.83 ×10⁵ No_unit and 0.77 ×10⁵ No_unit, respectively.

In turn, `CCn1cc(C(=O)N/N=C\c2ccc(C)cc2)c(=O)c2cc(F)c(N3CCN(C)CC3)cc21` gave an Activity in series [12] of more than 30%. In addition, the lowest concentration to inhibit growth in series [13] (MIC) was 42.5 µM (≈ 19.1 µg/mL).

For `O=C1CCC(N2C(=O)c3ccccc3C2=O)C(=O)N1` (centres undefined) [THALIDOMIDE], the inhibition at 25 µM in the series with Monocyte [16] is less than 10%. In addition, the inhibition at 50 µM in the series with Monocyte [17] was found to be 15%. In series [18], the viability at 50 µM came out at 98%.

Regarding `C[C@@H](O)[C@H]1C(=O)N2C(C(=O)O)=C(SCCNC=O)C[C@H]12`, the “diameter of the inhibition zone (DIZ)” value is listed as 30 mm with Escherichia coli and 29 mm with Staphylococcus aureus.

As to `COc1cc(Oc2cnc(N)nc2N)cc(OC)c1Br`, the Activity in the series with Mycobacterium leprae [7] came out at 0.56 ×10⁷ No_unit; in the series with Mycobacterium leprae [8], 1.27 ×10⁷ No_unit.

For `Clc1nc(-c2cccs2)c2ncn(Cc3ccccc3)c2n1`, the selectivity ratio in series [19] is more than 6.4. The inhibition at 6.25 µg/mL in series [20] is more than 90%.

What is called MIC is the lowest concentration found to suppress growth. As usually defined, the inhibition is how much of the control response was suppressed.
